This is an account of results in patent US20120219500A1, “DIAGNOSTIC AGENT FOR INFECTIOUS DISEASES” (FUJIFILM RI PHARMA CO., LTD., priority 2009, published 2012).

Series [1] is classed as in vivo.
In a further series the test system is Bacteroides fragilis. In words: in vitro uptake of radionuclide-labeled nitroimidazole derivatives (gamma counter). The conditions noted are these: for uptake by obligate anaerobes compared with facultative anaerobes: 26 to 37 KBq radiolabeled derivative, anaerobic, 37° C., rate of uptake per 10^8 CFU (FIGS. 3-6). It is filed as cell-based.
Series [2] relates to attenuated Mycobacterium bovis (BCG, ATCC35734). Type of series: cell-based. The note with it: anaerobic, 37° C.
In series [3] the test system is Bacteroides fragilis (ATCC25285). Briefly: in vitro uptake of nitroimidazole derivative under anaerobic environment (absorbance of supernatant). The conditions noted are these: 37° C. It is filed as cell-based.
The test system of series [4] is E.coli (ATCC25922). Described as above. Type of series: cell-based. The note with it: 100 μM metronidazole, 37° C., rate of uptake per 10^8 CFU (FIG. 1).
Series [5] deals with Bacteroides fragilis (ATCC25285, NCTC10581). In words: rat subcutaneous infection model, infected skin site. The note with it: SD rat, i.v. 6.5 hours before blood collection. It is filed as in vivo. As for the experimental part:
(§1) An in vivo assay was performed using a rat subcutaneous infection model. As the nitroimidazole derivative, Compound 1 or Compound 2 was used. As the microorganism, two strains of Bacteroides fragilis (ATCC25285, NCTC10581), which is susceptible to metronidazole, or E.coli (ATCC25922), which is not susceptible to metronidazole, was used. A 6-week-old male SD rat was administered with 5×10^9 cfu/0.1 ml bacteria suspended in physiological saline subcutaneously into the left thigh, and then served for evaluation four days later. Approximately 0.74 MBq of Compound 1 or Compound 2 was administered via the vena jugularis externa, and three hours later, blood was collected and tissues were excised. Also, for evaluation of inflammation in the infection model, approximately 0.15 MBq of [^67Ga]gallium citrate (FUJIFILM RI Pharma Co., Ltd.), which is a radioactive diagnostic agent for inflammation, was administered via the vena jugularis externa 6.5 hours before blood collection. The viable bacteria in the infected tissue was confirmed by smearing a part of the infected skin tissue on a medium and culturing it. Radioactivity (cpm) of each of ^67Ga and ^125I was measured in blood, in the infected skin site, and in the non-infection site on the skin. Radioactivity of ^125I was measured after attenuating the radioactivity of ^67Ga. The amount accumulated in each tissue and % ID/g (the ratio of radioactivity per tissue weight relative to the radioactivity administered) were calculated.

Series [6] has as its system E.coli (ATCC25922). The series is described as above. The note with it: SD rat, i.v. 6.5 hours before blood collection. Type of series: in vivo. The procedure:
as §1

Series [7] in a line: rat subcutaneous infection model, non-infected skin site. Type of series: in vivo. The conditions noted are these: SD rat, i.v. 6.5 hours before blood collection. The procedure: as §1, with “The viable bacteria in the infected tissue was confirmed by smearing a part of the infected skin tissue on a medium and culturing it.” left out
Setting [8] is: approx. 0.74 MBq i.v., three hours later.

Where two headings read alike, the source gives them in different places.

On to `Cc1ncc([N+](=O)[O-])n1CCNC(=O)c1cccc(I)c1` [Compound 1, [^125I]N1-[2-(2-methyl-5-nitro-1H-1-imidazolyl)ethyl]-3-iodobenzamide], for which the “amount accumulated in the inflammatory skin site/blood” value in series [1] (setting [8]) worked out at 0.85±0.25. Besides, in the series with Bacteroides fragilis, the “uptake by obligate anaerobes compared with facultative anaerobes” value (from here on “uptake … compared with facultative anaerobes”) is recorded as “taken up in a greater amount by obligate anaerobes than by facultative anaerobes”.
As for `O=C(NCCn1ccnc1[N+](=O)[O-])c1cccc(I)c1` [Compound 2, N1-[2-(2-nitro-1H-1-imidazolyl)ethyl]-3-iodobenzamide], the “uptake by BCG compared with E.coli” value in series [2] (Compound 2 0.1 mM, rate of uptake per 10^7 CFU (FIG. 9)) is on record as “clearly taken up in a greater amount by nitroimidazole derivative susceptible BCG than by non-nitroimidazole derivative susceptible E.coli”. The “amount accumulated in the inflammatory skin site/blood” value in series [1] (setting [8]) came to 0.73±0.11. The “uptake … compared with facultative anaerobes” value in the series on Bacteroides fragilis is given as “taken up in a greater amount by obligate anaerobes than by facultative anaerobes”.
Take `Cc1ncc([N+](=O)[O-])n1CCO` [Metronidazole, metronidazole]: in series [3] (100 μM metronidazole, rate of uptake per 10^8 CFU (FIG. 1)), the “uptake by the obligate anaerobe Bacteroides fragilis” value is “taken up in a large amount”. In addition, the “uptake by the facultative anaerobe E.coli” value in the series on E.coli (ATCC25922) [4] is recorded as “taken up in little amount”.
Take `O=[N+]([O-])c1nccn1CC(O)CF` (centres unmarked) [[^19F]FMISO, fluoromisonidazole]: in series [2] ([^19F]FMISO 0.09 mM, E.coli data from Example 1 (FIG. 10)), the “uptake by acid-fast bacteria compared with E.coli” value is “taken up in a greater amount by nitroimidazole derivative susceptible Mycobacterium tuberculosis in the resting stage of division than by nitroimidazole derivative non-susceptible E.coli”. The “uptake … compared with facultative anaerobes” value in series [3] (70 μM [^19F]FMISO, B.fragilis vs E.coli (FIG. 2)) is on record as “taken up in a greater amount by obligate anaerobes than by facultative anaerobes”.
In the case of `O=C([O-])CC(O)(CC(=O)[O-])C(=O)[O-].[67Ga+3]` [[^67Ga]gallium citrate], the results for the “amount accumulated in the infected skin site/blood” value (in series [5] (Bacteroides fragilis (ATCC25285)); in series [5] (Bacteroides fragilis (NCTC10581)); with E.coli (ATCC25922) [6]) were 1.75 ±0.2, 1.89±0.4 and 1.73±0.7, respectively. For the same compound, the “amount accumulated in the inflammatory skin site/blood” value in series [1] (rat, in vivo, iv) worked out at 1.61±0.16. Further, the “amount accumulated in the non-infected skin site/blood” value in series [7] stood at 0.41±0.06.
For “[^67Ga] Ga-DOTA-(metronidazole)2 [Compound 3]”, the “uptake … compared with facultative anaerobes” value in the series on Bacteroides fragilis is “taken up in a greater amount by obligate anaerobes than by facultative anaerobes”. In addition, in the series on Bacteroides fragilis (37° C. for 120 minutes, 0.43×10^8 to 6.75×10^8 CFU/mL viable Bacteroides fragilis (FIG. 7)), the “rate of uptake versus number of viable obligate anaerobes” value was “increased in a manner correlated with the number of viable obligate anaerobes”.
With “fluorine-18-labeled fluoromisonidazole [[^18F]FMISO]”, the “uptake … compared with facultative anaerobes” value in the series on Bacteroides fragilis was “taken up in a greater amount by obligate anaerobes than by facultative anaerobes”.
